Experimental data from patent US9181234B2, “Antibacterial compounds” (priority 2010, dated 2015).
≈ marks a conversion by molar mass, not a printed value. Read-outs that look alike come from different tables or passages of the source.

What was measured:
physchem = details: kinetic from dmso stock
Outline: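 DMSO doubling dilutions were diluted twenty-fold into 100 mM citrate (pH 4), PBS (pH 7.4) or carbonate-bicarbonate (pH 9). After 24 h equilibration at room temperature, absorbance was read at 620 nm. The reported value is the highest concentration without measurable precipitate.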

[1] = Pharmacokinetic assay, IV and oral PK profile, rat; assay type: in vivo; details: plasma; for bioavailability: [AUCoral/AUCiv]×100%, 3 mg/kg, read-out: F (%) bioavailability
Protocol: (§1) Pharmacokinetic Assays: Determination of PK Profile
(§2) The pharmacokinetic profiles of compounds were determined by measuring the compound concentration in plasma by LC/MS/MS following a single intravenous or peroral administration of the compounds at a dose of 3 mg/kg. The concentrations described are the mean plasma concentrations at each time point from three animals. Intravenous dose formulation was administered as a single bolus dose through the tail vein. Oral dose formulation was administered to animals by an oral gavage needle. In both cases the dose volume was 5.0 mL/kg. Blood was collected from rats using a jugular vein catheter and from anesthetized mice through a capillary guided into the retro-orbital plexus. The collected blood was centrifuged to obtain plasma and the compounds extracted into methanol prior to determining the compound concentration by LC/MS/MS. The results for selected compounds of the invention are shown in FIGS. 2 to 8 where the X axis denotes time (hours) and the Y axis denotes plasma concentration (ng/mL). The Cmaxoral (μg/mL), AUCiv (μg·hr/mL), AUCoral (μg.hr/mL) and F(%) values are provided in the following table where Cmaxoral is the maximum oral concentration, AUC is area under the curve for intraveneous (IV) and oral and F (%) represents compound bioavailability as calculated by [AUCoral/AUCiv]×100%.

[2] = Pharmacokinetic assay, IV and oral PK profile, mouse; assay type: in vivo; details: plasma; for bioavailability: [AUCoral/AUCiv]×100%, 3 mg/kg, read-out: F (%) bioavailability
Protocol: as §1, §2

[3] = system: Haemophilus influenzae (Isolate ID ATCC 49247); assay: Antibacterial activity, MIC, H. influenzae; assay type: cell-based; details: Haemophilus influenzae, ATCC49247; Gram negative strain; broth microdilution or agar dilution
Outline: (§3)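 Broth microdilution or agar dilution per CLSI M7-A7; MIC read as susceptibility endpoint in liquid or solid medium.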

[4] = system: Staphylococcus aureus (Isolate ID ATCC 29213); assay: Antibacterial activity, MIC, S. aureus; assay type: cell-based; details: Staphylococcus aureus, ATCC29213, Gram positive strain; broth microdilution or agar dilution
Outline: as §3

[5] = system: Enterococcus faecalis (Isolate ID ATCC 29212); assay: Antibacterial activity, MIC, E. faecalis; assay type: cell-based; details: Enterococcus faecalis, ATCC29212; Gram positive strain; broth microdilution or agar dilution
Outline: as §3

[6] = system: Streptococcus pyogenes (Isolate ID ATCC 51339); assay: Antibacterial activity, MIC, S. pyogenes; assay type: cell-based; details: Streptococcus pyogenes, ATCC51339, Gram positive strain; broth microdilution or agar dilution
Outline: as §3

[7] = molecular target: T1, Gyrase enzyme (A2B2 complex from Staphylococcus aureus) (UniProt P0A0K8); assay: Gyrase ATPase assay (S. aureus enzyme); assay type: biochemical
T1 construct: 2 mU/μl Gyrase enzyme (A2B2 complex from Staphylococcus aureus); Alternatively
Protocol: On-Target Enzyme Assay: Determination of Gyrase ATPase Activity
Gyrase converts ATP into ADP and inorganic phosphate. The released phosphate can be detected by the addition of malachite green solution and measured by monitoring the increase in absorbance at 600 nm. The ATPase assay is carried out in a buffer containing 2 mU/μl Gyrase enzyme (A2B2 complex from Staphylococcus aureus), 0.08 mg/ml double-stranded DNA, 8 mM HEPES.KOH pH 7.6, 100 mM K glutamate, 2 mM Mg acetate, 2 mM DTT, 0.01 mg/ml BSA, and 5% DMSO solution containing the inhibitor. Alternatively, the ATPase assay is carried out in a buffer containing 4.8 μg/mL Gyrase enzyme (A2B2 complex from Escherichia coli), 0.08 μg/mL ssDNA, 35 mM Tris pH 7.5, 24 mM KCl, 2 mM MgCl2, 6.5% Glycerol, 2 mM DTT, 1.8 mM Spermidine, 0.5 mg/mL BSA and 5% DMSO solution containing the inhibitor. The reaction is started by adding ATP to a final concentration of 1 mM and allowed to incubate at 30° C. for 60 minutes. The reaction is stopped by adding […] of malachite green solution (0.034% malachite green, 10 mM ammonium molybdate, 1 M HCl, 3.4% ethanol, 0.01% tween 20). Colour is allowed to develop for 5 minutes and the absorbance at 600 nm is measured spectrophotometrically. The IC50 values are determined from the absorbance readings using no compound and no enzyme controls.

[8] = pH 7.4, aqueous buffer, Max Solubility
[9] = pH 7.4, aqueous buffer, Solubility (pH 7.4)
[10] = pH 7.4, aqueous buffer, Solubility Range
[11] = pH 7.4, aqueous buffer, Solubility Range (maximum solubility)
[12] = po, single peroral dose 3 mg/kg, read-out: AUCoral
[13] = single intravenous dose 3 mg/kg, read-out: AUCiv

solubility at 24 h (physchem; [8]) [µg/mL] | solubility at 24 h (physchem; [9]) [µg/mL] | solubility at 24 h (physchem; [10]) [µg/mL] | solubility at 24 h (physchem; [11]) [µg/mL] | bioavailability ([1]; po) [%] | AUC [1, 12] [ng·h/mL] | AUC [1, 13] [ng·h/mL] | Cmaxoral ([1]; single peroral dose 3 mg/kg) [ng/mL] | bioavailability ([2]; po) [%] | AUC [2, 12] [ng·h/mL] | AUC [2, 13] [ng·h/mL] | Cmaxoral ([2]; single peroral dose 3 mg/kg) [ng/mL] | MIC [3] [µg/mL] | MIC [4] [µg/mL] | MIC [5] [µg/mL] | MIC [6] [µg/mL] | solubility at 24 h (physchem; pH 9, aqueous buffer, Max Solubility) [µg/mL] | solubility at 24 h (physchem; pH 9, aqueous buffer, Solubility Range (maximum solubility)) [µg/mL] | SMILES | IC50 ([7]; read-out: Gyrase ATPase activity (IC50); enzyme source (S. aureus or E. coli) not given; 1 mM ATP, 30° C., 60 minutes) [nM] | IC50 ([7]; enzyme source (S. aureus or E. coli) not given; 1 mM ATP, 30° C., 60 minutes; read-out: Gyrase ATPase activity (IC50)) [nM]
≥ 800 | ≥ 800 | > 800 | > 800 | 31 | 2100 | 6600 | 600 | 33 | 2500 | 7600 | 1700 | 1 to 16 (≈ 1.94 to 31 µM) | 0.25 to 1 (≈ 0.484 to 1.94 µM) | ≤ 0.25 | ≤ 0.25 | – | – | CCNC(=O)Nc1nc2cc(-c3ccc(N4CCC(C)(C(=O)O)CC4)nc3)cc(-c3ccccn3)c2s1 [Compound 4] | – | –
≥ 800 | ≥ 800 | > 800 | > 800 | – | – | – | – | 56 | 3400 | 6100 | 2000 | 1 to 16 (≈ 1.95 to 31.3 µM) | ≤ 0.25 | ≤ 0.25 | ≤ 0.25 | – | – | CCNC(=O)Nc1nc2cc(-c3cnc(N4CCC(C)(C(=O)O)CC4)nc3)cc(/C(C)=N/OC)c2s1 [Compound 88, 1-[5-[2-(ethylcarbamoylamino)-7-[(E)-N-methoxy-C-methyl-carbonimidoyl]-1,3-benzothiazol-5-yl]pyrimidin-2-yl]-4-methyl-piperidine-4-carboxylic acid] | – | –
– | ≥ 800 | > 800 | – | 80.4 | 22200 | 27700 | 3500 | 87 | 12500 | 14300 | 6100 | 1 to 16 (≈ 1.88 to 30.1 µM) | ≤ 0.25 | ≤ 0.25 | ≤ 0.25 | – | – | CCNC(=O)Nc1nc2cc(-c3cnc(N4CCC(CC)(C(=O)O)CC4)nc3)cc(-c3ccccn3)c2s1 [Compound 98] | – | –
– | 400 (≈ 754 µM) | 400 to 800 (≈ 754 to 1510 µM) | – | 76.5 | 22200 | 29000 | 5700 | – | – | – | – | 1 to 16 (≈ 1.88 to 30.2 µM) | ≤ 0.25 | ≤ 0.25 | ≤ 0.25 | ≥ 800 | > 800 | CCNC(=O)Nc1nc2cc(-c3ccc(N4CCC(CC)(C(=O)O)CC4)nc3)cc(-c3ccccn3)c2s1 [Compound 103] | – | –
≥ 800 | ≥ 800 | > 800 | > 800 | 95.9 | 34800 | 36300 | 5500 | 83 | 16500 | 20000 | 4400 | 1 to 16 (≈ 1.84 to 29.4 µM) | ≤ 0.25 | ≤ 0.25 | ≤ 0.25 | – | – | C=CCC1(C(=O)O)CCN(c2ncc(-c3cc(-c4ccccn4)c4sc(NC(=O)NCC)nc4c3)cn2)CC1 [Compound 136] | – | –
≥ 800 | ≥ 800 | > 800 | > 800 | 8.9 | 700 | 8300 | 300 | – | – | – | – | 1 to 16 (≈ 1.83 to 29.2 µM) | ≤ 0.25 | ≤ 0.25 | ≤ 0.25 | – | – | CCNC(=O)Nc1nc2cc(-c3cnc(N4CCC(COC)(C(=O)O)CC4)nc3)cc(-c3ccccn3)c2s1 [Compound 141] | – | –
≥ 800 | ≥ 800 | > 800 | > 800 | 10 | 4700 | 46900 | 700 | – | – | – | – | 1 to 16 (≈ 1.84 to 29.4 µM) | ≤ 0.25 | ≤ 0.25 | ≤ 0.25 | – | – | CCNC(=O)Nc1nc2cc(-c3cnc(N4CCC(C(=O)O)(C5CC5)CC4)nc3)cc(-c3ccccn3)c2s1 [Compound 143] | – | –
≥ 800 | ≥ 800 | > 800 | > 800 | 87 | 4200 | 4800 | 700 | – | – | – | – | 0.25 to 1 (≈ 0.467 to 1.87 µM) | ≤ 0.25 | ≤ 0.25 | ≤ 0.25 | – | – | CCNC(=O)Nc1nc2c(F)c(-c3cnc(N4CCC(C)(C(=O)O)CC4)nc3)cc(-c3ccccn3)c2s1 [Compound 161, 1-[5-[2-(ethylcarbamoylamino)-4-fluoro-7-(2-pyridyl)-1,3-benzothiazol-5-yl]pyrimidin-2-yl]-4-methyl-piperidine-4-carboxylic acid] | – | –

SMILES | solubility at 24 h (physchem; [8]) [µg/mL] | solubility at 24 h (physchem; [9]) [µg/mL] | solubility at 24 h (physchem; [10]) [µg/mL] | solubility at 24 h (physchem; [11]) [µg/mL] | bioavailability ([1]; po) [%] | AUC [1, 12] [ng·h/mL] | AUC [1, 13] [ng·h/mL] | Cmaxoral ([1]; single peroral dose 3 mg/kg) [ng/mL] | bioavailability ([2]; po) [%] | AUC [2, 12] [ng·h/mL] | AUC [2, 13] [ng·h/mL] | Cmaxoral ([2]; single peroral dose 3 mg/kg) [ng/mL] | MIC [3] [µg/mL] | MIC [4] [µg/mL] | MIC [5] [µg/mL] | MIC [6] [µg/mL] | solubility at 24 h (physchem; pH 9, aqueous buffer, Max Solubility) [µg/mL] | solubility at 24 h (physchem; pH 9, aqueous buffer, Solubility Range (maximum solubility)) [µg/mL] | IC50 ([7]; read-out: Gyrase ATPase activity (IC50); enzyme source (S. aureus or E. coli) not given; 1 mM ATP, 30° C., 60 minutes) [nM] | IC50 ([7]; enzyme source (S. aureus or E. coli) not given; 1 mM ATP, 30° C., 60 minutes; read-out: Gyrase ATPase activity (IC50)) [nM]
CCNC(=O)Nc1nc2cc(-c3nsc(N4CCC(CC)(C(=O)O)CC4)n3)cc(-c3ccccn3)c2s1 [Compound 232, 4-ethyl-1-(3-{2-[(ethylcarbamoyl)amino]-7-(pyridin-2-yl)-1,3-benzothiazol-5-yl}-1,2,4-thiadiazol-5-yl)piperidine-4-carboxylic acid] | – | – | – | – | – | – | – | – | – | – | – | – | > 16 | 1 to 16 (≈ 1.86 to 29.8 µM) | – | > 16 | – | – | 930 | –
CCNC(=O)Nc1nc2cc(-c3cnc(N4CCC(CC)(C(=O)OCC)CC4)nc3)cc(-c3cnc(N4CCC(CC)(C(=O)OCC)CC4)nc3)c2o1 [Compound 234, Diethyl 1,1′-({2-[(ethylcarbamoyl)amino]-1,3-benzoxazole-5,7-diyl}dipyrimidine-5,2-diyl)bis(4-ethylpiperidine-4-carboxylate)] | – | – | – | – | – | – | – | – | – | – | – | – | – | > 16 | – | > 16 | – | – | – | > 1370
